Test results published in ChEMBL document CHEMBL4014286, “Discovery of orally active hepatoselective glucokinase activators for treatment of Type II Diabetes Mellitus” (Bioorg Med Chem Lett, 2017).
Blank lines part the entries; values can stand above or below the molecule they belong to. The source made the active and inactive calls. The rule behind the calls is not given here.

How the values were obtained:
Mus musculus [1] = experiment: Antidiabetic activity in HFD-fed C57BL/6 mouse assessed as decrease in blood glucose level at 10 to 30 mg/kg, ip; assay type: functional, organism-based
Mus musculus [2] = experiment: Antidiabetic activity in HFD-fed C57BL/6 mouse assessed as decrease in plasma insulin level at 30 mg/kg, ip; assay type: functional, organism-based
[3] = Oral bioavailability in mouse; assay type: ADME, organism-based; details: in vivo
Hexokinase-4 = target: T1, Hexokinase-4 (Homo sapiens, UniProt P35557); experiment: Activation of recombinant human glucokinase assessed as conversion of D-glucose to D-glucose-6-phosphate in presence of 10 mM glucose by G6PDH coupled spectrophotometric assay
T1 sequence (P35557 whole entry): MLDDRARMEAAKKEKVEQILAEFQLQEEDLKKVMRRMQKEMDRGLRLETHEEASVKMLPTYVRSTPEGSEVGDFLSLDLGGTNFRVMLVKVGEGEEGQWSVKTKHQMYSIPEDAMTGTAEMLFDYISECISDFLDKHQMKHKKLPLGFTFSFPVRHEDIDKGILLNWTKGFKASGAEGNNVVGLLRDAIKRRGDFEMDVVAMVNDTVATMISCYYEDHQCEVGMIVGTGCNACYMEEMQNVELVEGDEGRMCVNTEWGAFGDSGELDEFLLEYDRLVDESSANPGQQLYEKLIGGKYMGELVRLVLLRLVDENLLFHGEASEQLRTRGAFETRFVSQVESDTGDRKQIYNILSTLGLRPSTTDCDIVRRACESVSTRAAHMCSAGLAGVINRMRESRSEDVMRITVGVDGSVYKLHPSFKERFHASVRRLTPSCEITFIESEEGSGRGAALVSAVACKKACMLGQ

[4] = Clearance in rat; assay type: ADME; details: in vivo
[5] = Mean residence time in rat; assay type: ADME; details: in vivo
[6] = Half life in rat; assay type: ADME; details: in vivo
[7] = Oral bioavailability in rat; assay type: ADME, organism-based; details: in vivo
[8] = Apparent permeability of the compound; assay type: physicochemical; details: not told
[9] = Total drug level in HFD-fed C57BL/6 mouse liver at 30 mg/kg, ip measured 4 hrs post dose; assay type: ADME, organism-based; details: read-out: Drug uptake
[10] = Total drug level in HFD-fed C57BL/6 mouse pancreas at 30 mg/kg, ip measured 4 hrs post dose; assay type: ADME, organism-based; details: read-out: Drug uptake
[11] = Total drug level in HFD-fed C57BL/6 mouse plasma at 30 mg/kg, ip measured 4 hrs post dose; assay type: ADME, organism-based
[12] = Ratio of drug level in HFD-fed C57BL/6 mouse liver to plasma at 30 mg/kg, ip measured 4 hrs post dose; assay type: ADME, organism-based
[13] = Ratio of drug level in HFD-fed C57BL/6 mouse pancreas to plasma at 30 mg/kg, ip measured 4 hrs post dose; assay type: ADME, organism-based
[14] = Ratio of drug level in HFD-fed C57BL/6 mouse liver to pancreas at 30 mg/kg, ip measured 4 hrs post dose; assay type: ADME, organism-based; details: in vivo
Mus musculus [15] = experiment: Toxicity in HFD-fed C57BL/6 mouse assessed as increase in plasma insulin level at 10 mg/kg, ip; assay type: organism-based; details: in vivo
Mus musculus [16] = experiment: Antidiabetic activity in HFD-fed C57BL/6 mouse assessed as decrease in blood glucose level at 10 mg/kg, po; assay type: functional, organism-based
[17] = Ratio of drug level in HFD-fed C57BL/6 mouse liver to plasma at 10 mg/kg, po measured 4 hrs post dose; assay type: ADME, organism-based
[18] = Total drug level in HFD-fed C57BL/6 mouse plasma at 10 mg/kg, po measured 4 hrs post dose; assay type: ADME, organism-based
[19] = Total drug level in HFD-fed C57BL/6 mouse pancreas at 10 mg/kg, po measured 4 hrs post dose; assay type: ADME, organism-based; details: read-out: Drug uptake
[20] = Total drug level in HFD-fed C57BL/6 mouse liver at 10 mg/kg, po measured 4 hrs post dose; assay type: ADME, organism-based; details: read-out: Drug uptake
Mus musculus [21] = experiment: Toxicity in HFD-fed C57BL/6 mouse assessed as increase in plasma insulin level at 10 mg/kg, po; assay type: organism-based; details: in vivo
[22] = Ratio of drug level in HFD-fed C57BL/6 mouse pancreas to plasma at 10 mg/kg, po measured 4 hrs post dose; assay type: ADME, organism-based
[23] = Ratio of drug level in HFD-fed C57BL/6 mouse liver to pancreas at 10 mg/kg, po measured 4 hrs post dose; assay type: ADME, organism-based; details: in vivo
Mus musculus [24] = experiment: Antidiabetic activity in HFD-fed C57BL/6 mouse assessed as decrease in blood glucose level at 30 mg/kg, po; assay type: functional, organism-based
[25] = Fraction unbound in C57BL/6 mouse plasma; assay type: ADME, cell-free
Mus musculus [26] = experiment: Toxicity in HFD-fed C57BL/6 mouse assessed as increase in plasma insulin level at 30 mg/kg, po; assay type: organism-based; details: in vivo
[27] = Total drug level in HFD-fed C57BL/6 mouse liver at 3 mg/kg, po measured 4 hrs post dose; assay type: ADME, organism-based; details: read-out: Drug uptake
[28] = Total drug level in HFD-fed C57BL/6 mouse pancreas at 3 mg/kg, po measured 4 hrs post dose; assay type: ADME, organism-based; details: read-out: Drug uptake
[29] = Total drug level in HFD-fed C57BL/6 mouse plasma at 3 mg/kg, po measured 4 hrs post dose; assay type: ADME, organism-based
[30] = Ratio of drug level in HFD-fed C57BL/6 mouse liver to plasma at 3 mg/kg, po measured 4 hrs post dose; assay type: ADME, organism-based
[31] = Ratio of drug level in HFD-fed C57BL/6 mouse pancreas to plasma at 3 mg/kg, po measured 4 hrs post dose; assay type: ADME, organism-based
[32] = Ratio of drug level in HFD-fed C57BL/6 mouse liver to pancreas at 3 mg/kg, po measured 4 hrs post dose; assay type: ADME, organism-based; details: in vivo
[33] = Total drug level in HFD-fed C57BL/6 mouse liver at 30 mg/kg, po measured 4 hrs post dose; assay type: ADME, organism-based; details: read-out: Drug uptake
[34] = Total drug level in HFD-fed C57BL/6 mouse pancreas at 30 mg/kg, po measured 4 hrs post dose; assay type: ADME, organism-based; details: read-out: Drug uptake
[35] = Total drug level in HFD-fed C57BL/6 mouse plasma at 30 mg/kg, po measured 4 hrs post dose; assay type: ADME, organism-based
[36] = Ratio of drug level in HFD-fed C57BL/6 mouse liver to plasma at 30 mg/kg, po measured 4 hrs post dose; assay type: ADME, organism-based
[37] = Ratio of drug level in HFD-fed C57BL/6 mouse pancreas to plasma at 30 mg/kg, po measured 4 hrs post dose; assay type: ADME, organism-based
[38] = Ratio of drug level in HFD-fed C57BL/6 mouse liver to pancreas at 30 mg/kg, po measured 4 hrs post dose; assay type: ADME, organism-based; details: in vivo

SMILES: COc1ccc(Sc2ccc(Sc3ccccn3)nc2C(=O)Nc2nc(CC(=O)O)cs2)cc1
- EC50 (Hexokinase-4): 49 nM

SMILES: COc1ccc(Sc2ccc(Sc3ccccn3)nc2C(=O)Nc2nc(CC(=O)O)c(Cl)s2)cc1
- EC50 (Hexokinase-4): 5.7 nM
- Papp [8]: 22 ×10⁻⁶ cm/s

SMILES: Cc1ccc(Sc2ccc(Sc3nnc[nH]3)nc2C(=O)Nc2ncns2)cn1
- Activity (Mus musculus [16]): Active
- Kp at 4 h [17]: 4.5
- concentration at 4 h [18]: 18.5 µM
- concentration at 4 h [19]: 8.7 µM
- concentration at 4 h [20]: 77.7 µM
- Activity (Mus musculus [21]): Toxic
- EC50 (Hexokinase-4): 27.7 nM
- clearance [4]: 1.9 mL/min/kg
- half-life [6]: 2.7 h
- bioavailability [7]: 100%
- Papp [8]: 21 ×10⁻⁶ cm/s
- Kp at 4 h [22]: 0.5
- Ratio [23]: 8.9

SMILES: O=C(O)Cc1nc(NC(=O)c2nc(Sc3ccccn3)ccc2Sc2ccc(F)cc2)sc1Cl
- Activity (Mus musculus [16]): Active
- Kp at 4 h [17]: 12.4
- concentration at 4 h [18]: 4.5 µM
- concentration at 4 h [19]: 0.47 µM
- concentration at 4 h [20]: 51.5 µM
- Activity (Mus musculus [21]): Non-Toxic
- EC50 (Hexokinase-4): 9.6 nM
- clearance [4]: 50 mL/min/kg
- MRT [5]: 1.4 h
- half-life [6]: 3.9 h
- bioavailability [7]: 25%
- Papp [8]: 25 ×10⁻⁶ cm/s
- Kp at 4 h [22]: 0.1
- Ratio [23]: 127 to 128
- Activity (Mus musculus [24]): Active
- fraction unbound [25]: 0.049
- Activity (Mus musculus [26]): Toxic
- concentration at 4 h [27]: 10.4 µM
- concentration at 4 h [28]: 0.074 µM
- concentration at 4 h [29]: 0.62 µM
- Kp at 4 h [30]: 17.7
- Kp at 4 h [31]: 0.13
- Ratio [32]: 159
- concentration at 4 h [33]: 127 µM
- concentration at 4 h [34]: 2.1 µM
- concentration at 4 h [35]: 19.6 µM
- Kp at 4 h [36]: 6.7
- Kp at 4 h [37]: 0.11
- Ratio [38]: 70

SMILES: COc1ccc(Sc2ccc(Sc3ccccn3)nc2C(=O)Nc2ncc(SCC(=O)O)s2)cc1
- EC50 (Hexokinase-4): 14 nM
- clearance [4]: 28 mL/min/kg
- MRT [5]: 0.76 h
- half-life [6]: 2.1 h
- bioavailability [7]: 57%
- Papp [8]: 26 ×10⁻⁶ cm/s
- fraction unbound [25]: 0.003

The remaining molecules from weak to strong by EC50 (Hexokinase-4), led by results:

- EC50 (Hexokinase-4): 68.5 nM
SMILES: COc1ccc(Sc2ccc(Sc3ccccn3)nc2C(=O)Nc2ncc(CCC(=O)O)s2)cc1

- bioavailability [3]: 3%
- EC50 (Hexokinase-4): 51.5 nM
- clearance [4]: 115 mL/min/kg
- MRT [5]: 0.64 h
- half-life [6]: 2 h
- bioavailability [7]: 1 to 1.2%
- Papp [8]: 2 ×10⁻⁶ cm/s
- concentration at 4 h [9]: 452 µM
- concentration at 4 h [10]: 4 µM
- concentration at 4 h [11]: 31 µM
- Kp at 4 h [12]: 14.9
- Kp at 4 h [13]: 0.16
- Ratio [14]: 113
SMILES: COc1ccc(Sc2ccc(Sc3nncn3C)nc2C(=O)Nc2ncc(SCC(=O)O)s2)cc1
- Activity (Mus musculus [1]): Active
- Activity (Mus musculus [2]): Active
- Activity (Mus musculus [15]): Non-Toxic
